Experimental data published in patent US20190255086A1, “Compositions and Methods for Treating an Infection” (CMPD Licensing, LLC, priority 2015, published 2019).

Tested on: Candida species
Experiment: Expected efficacy of anti-fungal agents against various fungi (Table 4)

Structure (SMILES): C[C@@H]1[C@H](O)[C@@H](C)/C=C/C=C/CC/C=C/C=C/C=C/C=C/C(O[C@H]2O[C@H](C)[C@@H](O)[C@H](N)[C@@H]2O)CC2O[C@](O)(CC(O)C(O)CCC(O)CC(O)CC(O)CC(=O)O[C@H]1C)CC(O)C2C(=O)O (stereo partly shown) [Nystatin]
- Efficacy of various antifungal agents: yes
